Assay results from US12077503B2, “Substituted cyclic amides and their use as herbicides” (FMC CORPORATION, priority 2015, dated 2024).

Tests used:
Type in all cases: in vivo
Kochia (Kochia scoparia) [1] = assay: Test A preemergence; settings: Bassia scoparia, pre-emergence, 240 h, Preemergence
Method in brief: (§1)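 Seeds sprayed preemergence with a directed soil spray, or plants at 2 to 10 cm height and one- to two-leaf stage sprayed postemergence, with test chemicals in a non-phytotoxic solvent mixture containing surfactant, in loam soil–sand blend. Injury rated visually against untreated controls after about 10 d in greenhouse, 0 (no effect) to 100 (complete control).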

[2] = test system: barnyardgrass (Echinochloa crus-galli); assay: Test A preemergence; settings: Echinochloa crus-galli, pre-emergence, 240 h, Preemergence
Method in brief: as §1

[3] = test system: giant foxtail (Setaria faberii); assay: Test A preemergence; settings: Setaria faberi, pre-emergence, 240 h, Preemergence
Method in brief: as §1

[4] = test system: pigweed (Amaranthus retroflexus); assay: Test A preemergence; settings: Amaranthus retroflexus, pre-emergence, 240 h, Preemergence
[5] = test system: ragweed (common ragweed, Ambrosia elatior); assay: Test A preemergence; settings: Ambrosia artemisiifolia, pre-emergence, 240 h, Preemergence
Method in brief: as §1

[6] = test system: ryegrass, Italian (Italian ryegrass, Lolium multiflorum); assay: Test A preemergence; settings: Lolium multiflorum, pre-emergence, 240 h, Preemergence
Method in brief: as §1

[7] = test system: Galium (catchweed bedstraw, Galium aparine); assay: Test A postemergence; settings: Galium, post-emergence, 240 h, Postemergence, read-out: Galium plant response rating (0 to 100 scale)
Method in brief: as §1

Kochia (Kochia scoparia) [8] = assay: Test A postemergence; settings: Bassia scoparia, post-emergence, 240 h, Postemergence, read-out: Kochia plant response rating (0 to 100 scale)
Method in brief: as §1

[9] = test system: barnyardgrass (Echinochloa crus-galli); assay: Test A postemergence; settings: Echinochloa crus-galli, post-emergence, 240 h, Postemergence
Method in brief: as §1

[10] = test system: blackgrass (Alopecurus myosuroides); assay: Test A postemergence; settings: Alopecurus myosuroides, post-emergence, 240 h, Postemergence, read-out: Blackgrass plant response rating (0 to 100 scale)
Method in brief: as §1

corn (Zea mays) = assay: Test A postemergence; settings: Zea mays, post-emergence, 240 h, Postemergence, read-out: Corn plant response rating (0 to 100 scale)
Method in brief: as §1

[11] = test system: giant foxtail (Setaria faberii); assay: Test A postemergence; settings: Setaria faberi, post-emergence, 240 h, Postemergence, read-out: Foxtail, Giant plant response rating (0 to 100 scale)
Method in brief: as §1

[12] = test system: pigweed (Amaranthus retroflexus); assay: Test A postemergence; settings: Amaranthus retroflexus, post-emergence, 240 h, Postemergence, read-out: Pigweed plant response rating (0 to 100 scale)
Method in brief: as §1

[13] = test system: ragweed (common ragweed, Ambrosia elatior); assay: Test A postemergence; settings: Ambrosia artemisiifolia, post-emergence, 240 h, Postemergence, read-out: Ragweed plant response rating (0 to 100 scale)
Method in brief: as §1

[14] = test system: ryegrass, Italian (Italian ryegrass, Lolium multiflorum); assay: Test A postemergence; settings: Lolium multiflorum, post-emergence, 240 h, Postemergence, read-out: Ryegrass, Italian plant response rating (0 to 100 scale)
Method in brief: as §1

[15] = test system: wheat (Triticum aestivum); assay: Test A postemergence; settings: Triticum aestivum, post-emergence, 240 h, Postemergence, read-out: Wheat plant response rating (0 to 100 scale)
Method in brief: as §1

[16] = test system: barnyardgrass (Echinochloa crus-galli); assay: Test B flooded paddy test; settings: Echinochloa crus-galli, 360 h, Flood, 250 g ai/ha; visually evaluated after 13 to 15 d; read-out: Plant response rating, Barnyardgrass (0 to 100 scale where 0 is no effect and 100 is complete control)
Method in brief: (§2)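 Plants at 2-leaf stage flooded to 3 cm above soil, with compounds applied directly to paddy water and that depth maintained. Plants kept in greenhouse 13–15 d. Visual rating versus controls on a 0 (no effect) to 100 (complete control) scale.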

[17] = test system: ducksalad (Heteranthera limosa); assay: Test B flooded paddy test; settings: Heteranthera limosa, 360 h, Flood, 250 g ai/ha; visually evaluated after 13 to 15 d; read-out: Plant response rating, Ducksalad (0 to 100 scale where 0 is no effect and 100 is complete control)
Method in brief: as §2

rice (Oryra sativa) = assay: Test B flooded paddy test; settings: Oryza sativa, 360 h, Flood, 250 g ai/ha; visually evaluated after 13 to 15 d; read-out: Plant response rating, Rice (0 to 100 scale where 0 is no effect and 100 is complete control)
Method in brief: as §2

[18] = test system: sedge, umbrella (small-flower umbrella sedge, Cyperus difformis); assay: Test B flooded paddy test; settings: Cyperus difformis, 360 h, Flood, 250 g ai/ha; visually evaluated after 13 to 15 d; read-out: Plant response rating, Sedge, Umbrella (0 to 100 scale where 0 is no effect and 100 is complete control)
Method in brief: as §2

[19] = 125 g ai/ha, visual rating about 10 d after treatment
[20] = 31 g ai/ha, 0 is no effect, 100 is complete control

CC(C)=Cc1cc([C@H]2CN(C)C(=O)[C@@H]2C(=O)Nc2cccc(F)c2F)ccc1C(F)(F)F [Compound 1337]
pest or weed control at 31 g/ha (Kochia (Kochia scoparia) [1]; 31 g ai/ha, 0 to 100 scale where 0 is no effect and 100 is complete control, read-out: Kochia plant response rating): 0%
pest or weed control at 125 g/ha (Kochia (Kochia scoparia) [1]; 125 g ai/ha, 0 to 100 scale (0 no effect, 100 complete control), read-out: Plant response rating, Kochia): 0%
pest or weed control at 31 g/ha ([2]; 31 g ai/ha, 0 to 100 scale where 0 is no effect and 100 is complete control, read-out: Barnyardgrass plant response rating): 50%
pest or weed control at 125 g/ha ([2]; 125 g ai/ha, 0 to 100 scale (0 no effect, 100 complete control), read-out: Plant response rating, Barnyardgrass): 80%
pest or weed control at 31 g/ha ([3]; 31 g ai/ha, 0 to 100 scale where 0 is no effect and 100 is complete control, read-out: Foxtail, Giant plant response rating): 40%
pest or weed control at 125 g/ha ([3]; 125 g ai/ha, 0 to 100 scale (0 no effect, 100 complete control), read-out: Plant response rating, Foxtail, Giant): 80%
pest or weed control at 31 g/ha ([4]; 31 g ai/ha, 0 to 100 scale where 0 is no effect and 100 is complete control, read-out: Pigweed plant response rating): 0%
pest or weed control at 125 g/ha ([4]; 125 g ai/ha, 0 to 100 scale (0 no effect, 100 complete control), read-out: Plant response rating, Pigweed): 0%
pest or weed control at 31 g/ha ([5]; 31 g ai/ha, 0 to 100 scale where 0 is no effect and 100 is complete control, read-out: Ragweed plant response rating): 0%
pest or weed control at 125 g/ha ([5]; 125 g ai/ha, 0 to 100 scale (0 no effect, 100 complete control), read-out: Plant response rating, Ragweed): 0%
pest or weed control at 31 g/ha ([6]; 31 g ai/ha, 0 to 100 scale where 0 is no effect and 100 is complete control, read-out: Ryegrass, Italian plant response rating): 20%
pest or weed control at 125 g/ha ([6]; 125 g ai/ha, 0 to 100 scale (0 no effect, 100 complete control), read-out: Plant response rating, Ryegrass, Italian): 70%
pest or weed control at 125 g/ha [7, 19]: 0%
pest or weed control at 31 g/ha [7, 20]: 0%
pest or weed control at 125 g/ha (Kochia (Kochia scoparia) [8]; [19]): 20%
pest or weed control at 31 g/ha (Kochia (Kochia scoparia) [8]; [20]): 20%
pest or weed control at 125 g/ha ([9]; 125 g ai/ha, visual rating about 10 d after treatment, read-out: Barnyardgrass plant response rating (0 to 100 scale, 0 no effect, 100 complete control)): 30%
pest or weed control at 31 g/ha ([9]; 31 g ai/ha, 0 is no effect, 100 is complete control, read-out: Barnyardgrass plant response rating (0 to 100 scale)): 20%
pest or weed control at 125 g/ha [10, 19]: 0%
pest or weed control at 31 g/ha [10, 20]: 0%
plant injury at 125 g/ha (corn (Zea mays); [19]): 0%
plant injury at 31 g/ha (corn (Zea mays); [20]): 0%
pest or weed control at 125 g/ha [11, 19]: 40%
pest or weed control at 31 g/ha [11, 20]: 20%
pest or weed control at 125 g/ha [12, 19]: 20%
pest or weed control at 31 g/ha [12, 20]: 0%
pest or weed control at 125 g/ha [13, 19]: 0%
pest or weed control at 31 g/ha [13, 20]: 0%
pest or weed control at 125 g/ha [14, 19]: 20%
pest or weed control at 31 g/ha [14, 20]: 0%
plant injury at 125 g/ha [15, 19]: 20%
plant injury at 31 g/ha [15, 20]: 0%
pest or weed control at 250 g/ha [16]: 20%
pest or weed control at 250 g/ha [17]: 20%
pest or weed control at 250 g/ha (rice (Oryra sativa)): 20%
pest or weed control at 250 g/ha [18]: 0%
